The values that follow come from patent publication US10206394B2, “Herbicidal compounds” (Syngenta Participations AG, priority 2014, dated 2019).

Like-named read-outs stand apart in the source and are kept apart here.

Common to all, as to assay: Glasshouse assay for herbicidal activity (pre- and post-emergence), percentage phytotoxicity
What all share (type): in vivo

The test system of test [1] is Echinochloa crus-galli (ECHCG). The note with it: Echinochloa crus-galli. Summed up: (§1)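 Pot-grown, standard soil. PRE: spray 1 d post-sowing; POST: ~12 d. Glasshouse 24/18 °C (warm spp.) / 20/16 °C (cool spp.), 16 h light, 65% RH, watered 2×/day. Visual % damage, 20 DAA PRE, 15 DAA POST.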
Test [2] concerns Alopecurus myosuroides (ALOMY). Conditions: Alopecurus myosuroides. In outline: as §1
The next test deals with Lolium perenne (LOLPE). The note with it: Lolium perenne. In outline: as §1
Another test has as its system Avena fatua (AVEFA). The note with it: Avena fatua. In outline:
as §1

The mark [3] stands for this setting: post-emergence, 360 h, POST-emergence, rate 250 g/ha, visual score 15 DAA (100%=total damage, 0%=no damage), read-out: Post-emergence herbicidal activity (percentage phytotoxicity) ECHCG POST.
Setting [4] is: pre-emergence, 480 h, PRE-emergence, rate 250 g/ha, visual score 20 DAA (100%=total damage, 0%=no damage), read-out: Pre-emergence herbicidal activity (percentage phytotoxicity) ECHCG PRE.
The mark [5] stands for this setting: post-emergence, 360 h, POST-emergence, rate 250 g/ha, visual score 15 DAA (100%=total damage, 0%=no damage), read-out: Post-emergence herbicidal activity (percentage phytotoxicity) ALOMY POST.
[6] abbreviates: pre-emergence, 480 h, PRE-emergence, rate 250 g/ha, visual score 20 DAA (100%=total damage, 0%=no damage), read-out: Pre-emergence herbicidal activity (percentage phytotoxicity) ALOMY PRE.
The mark [7] stands for this setting: post-emergence, 360 h, POST-emergence, rate 250 g/ha, visual score 15 DAA (100%=total damage, 0%=no damage), read-out: Post-emergence herbicidal activity (percentage phytotoxicity) LOLPE POST.
The mark [8] stands for this setting: pre-emergence, 480 h, PRE-emergence, rate 250 g/ha, visual score 20 DAA (100%=total damage, 0%=no damage), read-out: Pre-emergence herbicidal activity (percentage phytotoxicity) LOLPE PRE.
Setting [9] is: post-emergence, 360 h, POST-emergence, rate 250 g/ha, visual score 15 DAA (100%=total damage, 0%=no damage), read-out: Post-emergence herbicidal activity (percentage phytotoxicity) AVEFA POST.
Setting [10] is: pre-emergence, 480 h, PRE-emergence, rate 250 g/ha, visual score 20 DAA (100%=total damage, 0%=no damage), read-out: Pre-emergence herbicidal activity (percentage phytotoxicity) AVEFA PRE.

Take `Cc1cc(-c2nccs2)cc(C)c1C1C(=O)CC(CC(=O)NC(C)(C)C)C1=O` (stereo not drawn) [Compound A186]: the pest or weed control at 250 g/ha was found to be 80% in test [1] (post-emergence, 360 h, post-emergence, 250 g/ha, 15 DAA, visual score (100%=total damage; 0%=no damage), read-out: ECHCG POST herbicidal activity (percentage phytotoxicity)); 70% in test [1] (pre-emergence, 480 h, pre-emergence, 250 g/ha, 20 DAA, visual score (100%=total damage; 0%=no damage), read-out: ECHCG PRE herbicidal activity (percentage phytotoxicity)); 40% in test [2] (post-emergence, 360 h, post-emergence, 250 g/ha, 15 DAA, visual score (100%=total damage; 0%=no damage), read-out: ALOMY POST herbicidal activity (percentage phytotoxicity)); 40% in test [2] (pre-emergence, 480 h, pre-emergence, 250 g/ha, 20 DAA, visual score (100%=total damage; 0%=no damage), read-out: ALOMY PRE herbicidal activity (percentage phytotoxicity)); 60% in the test with Lolium perenne (LOLPE) (post-emergence, 360 h, post-emergence, 250 g/ha, 15 DAA, visual score (100%=total damage; 0%=no damage), read-out: LOLPE POST herbicidal activity (percentage phytotoxicity)); 60% in the test on Lolium perenne (LOLPE) (pre-emergence, 480 h, pre-emergence, 250 g/ha, 20 DAA, visual score (100%=total damage; 0%=no damage), read-out: LOLPE PRE herbicidal activity (percentage phytotoxicity)). Further, the pest or weed control at 250 g/ha stood at 30% in the test on Avena fatua (AVEFA) (post-emergence, 360 h, post-emergence, 250 g/ha, 15 DAA, visual score (100%=total damage; 0%=no damage), read-out: AVEFA POST herbicidal activity (percentage phytotoxicity)) and 0% in the test with Avena fatua (AVEFA) (pre-emergence, 480 h, pre-emergence, 250 g/ha, 20 DAA, visual score (100%=total damage; 0%=no damage), read-out: AVEFA PRE herbicidal activity (percentage phytotoxicity)).
For the molecule `CCNC(=O)CC1CC(=O)C(c2c(C)cc(-c3ncc(F)cc3F)cc2C)C1=O` (stereo not drawn) [Compound B201], the pest or weed control at 250 g/ha (in test [1] (setting [3]); in test [1] (setting [4]); in test [2] (setting [5]); in test [2] (setting [6]); in the test with Lolium perenne (LOLPE) (setting [7]); with Lolium perenne (LOLPE) (setting [8])) was 100% throughout. Further, the pest or weed control at 250 g/ha with Avena fatua (AVEFA) (setting [9]) and in the test on Avena fatua (AVEFA) (setting [10]) was 100% throughout.
As to `C/C=C/c1cc(C)c(C2C(=O)CC(CC(=O)NCc3cccc(F)c3)C2=O)c(CC)c1` (stereo not drawn) [Compound B188], the pest or weed control at 250 g/ha in test [1] (setting [3]) was 100%; in test [1] (setting [4]) it was 80%; in test [2] (setting [5]) it was 80%; in test [2] (setting [6]), 60%; in the test on Lolium perenne (LOLPE) (setting [7]), 90%; in the test with Lolium perenne (LOLPE) (setting [8]), 80%. For the same molecule, the pest or weed control at 250 g/ha in the test with Avena fatua (AVEFA) (setting [9]) is 100%; with Avena fatua (AVEFA) (setting [10]) it was 40%.
Consider `Cc1cc(-c2ncc(C#N)cc2F)cc(C)c1C1C(=O)CC(CC(=O)NC(C)(C)C)C1=O` (stereo not drawn) [Compound B85], for which the pest or weed control at 250 g/ha turned out to be 100% in test [1] (post-emergence, 360 h, 250 g/ha, post-emergence, 15 DAA, visual assessment (100%=total damage, 0%=no damage), read-out: Post-emergence herbicidal activity (percentage phytotoxicity) ECHCG POST); 20% in test [1] (pre-emergence, 480 h, 250 g/ha, pre-emergence, 20 DAA, visual assessment (100%=total damage, 0%=no damage), read-out: Pre-emergence herbicidal activity (percentage phytotoxicity) ECHCG PRE); 70% in test [2] (post-emergence, 360 h, 250 g/ha, post-emergence, 15 DAA, visual assessment (100%=total damage, 0%=no damage), read-out: Post-emergence herbicidal activity (percentage phytotoxicity) ALOMY POST); 70% in test [2] (pre-emergence, 480 h, 250 g/ha, pre-emergence, 20 DAA, visual assessment (100%=total damage, 0%=no damage), read-out: Pre-emergence herbicidal activity (percentage phytotoxicity) ALOMY PRE); 80% in the test on Lolium perenne (LOLPE) (post-emergence, 360 h, 250 g/ha, post-emergence, 15 DAA, visual assessment (100%=total damage, 0%=no damage), read-out: Post-emergence herbicidal activity (percentage phytotoxicity) LOLPE POST); 70% in the test on Lolium perenne (LOLPE) (pre-emergence, 480 h, 250 g/ha, pre-emergence, 20 DAA, visual assessment (100%=total damage, 0%=no damage), read-out: Pre-emergence herbicidal activity (percentage phytotoxicity) LOLPE PRE). Besides, the pest or weed control at 250 g/ha with Avena fatua (AVEFA) (post-emergence, 360 h, 250 g/ha, post-emergence, 15 DAA, visual assessment (100%=total damage, 0%=no damage), read-out: Post-emergence herbicidal activity (percentage phytotoxicity) AVEFA POST) came out at 50%; in the test with Avena fatua (AVEFA) (pre-emergence, 480 h, 250 g/ha, pre-emergence, 20 DAA, visual assessment (100%=total damage, 0%=no damage), read-out: Pre-emergence herbicidal activity (percentage phytotoxicity) AVEFA PRE), 10%.
As for `Cc1cc(C)c(C2=C(OC(=O)C(C)(C)C)CC(CC(=O)NC3COC3)C2=O)c(C)c1` (stereo not drawn) [Compound P13], the pest or weed control at 250 g/ha stood at 80% in test [1] (post-emergence, 360 h, Rate 250 g/ha, post-emergence, visual assessment 15 DAA, 100%=total damage, 0%=no damage, read-out: Post-emergence herbicidal activity (percentage phytotoxicity) ECHCG POST); 20% in test [1] (pre-emergence, 480 h, Rate 250 g/ha, pre-emergence, visual assessment 20 DAA, 100%=total damage, 0%=no damage, read-out: Pre-emergence herbicidal activity (percentage phytotoxicity) ECHCG PRE); 80% in test [2] (post-emergence, 360 h, Rate 250 g/ha, post-emergence, visual assessment 15 DAA, 100%=total damage, 0%=no damage, read-out: Post-emergence herbicidal activity (percentage phytotoxicity) ALOMY POST); 50% in test [2] (pre-emergence, 480 h, Rate 250 g/ha, pre-emergence, visual assessment 20 DAA, 100%=total damage, 0%=no damage, read-out: Pre-emergence herbicidal activity (percentage phytotoxicity) ALOMY PRE); 70% in the test with Lolium perenne (LOLPE) (post-emergence, 360 h, Rate 250 g/ha, post-emergence, visual assessment 15 DAA, 100%=total damage, 0%=no damage, read-out: Post-emergence herbicidal activity (percentage phytotoxicity) LOLPE POST); 10% in the test with Lolium perenne (LOLPE) (pre-emergence, 480 h, Rate 250 g/ha, pre-emergence, visual assessment 20 DAA, 100%=total damage, 0%=no damage, read-out: Pre-emergence herbicidal activity (percentage phytotoxicity) LOLPE PRE). Besides, the pest or weed control at 250 g/ha with Avena fatua (AVEFA) (post-emergence, 360 h, Rate 250 g/ha, post-emergence, visual assessment 15 DAA, 100%=total damage, 0%=no damage, read-out: Post-emergence herbicidal activity (percentage phytotoxicity) AVEFA POST) was 70%; in the test with Avena fatua (AVEFA) (pre-emergence, 480 h, Rate 250 g/ha, pre-emergence, visual assessment 20 DAA, 100%=total damage, 0%=no damage, read-out: Pre-emergence herbicidal activity (percentage phytotoxicity) AVEFA PRE) it was 10%.
As for `C=C(C)CNC(=O)CC1CC(=O)C(c2c(C)cc(-c3ncc(F)cn3)cc2C)C1=O` (stereo not drawn) [Compound B278], the pest or weed control at 250 g/ha in test [1] (setting [3]) is 100%; in test [1] (setting [4]) it was 100%; in test [2] (setting [5]), 100%; in test [2] (setting [6]), 100%; in the test with Lolium perenne (LOLPE) (setting [7]) it was 90%; in the test on Lolium perenne (LOLPE) (setting [8]), 100%. The pest or weed control at 250 g/ha with Avena fatua (AVEFA) (setting [9]) and in the test with Avena fatua (AVEFA) (setting [10]) was 100% each time.
For the molecule `CC#Cc1cc(C)c(C2C(=O)CC(CC(N)=O)C2=O)c(C)c1` (stereo not drawn) [Compound B168], the pest or weed control at 250 g/ha (in test [1] (setting [3]); in test [1] (setting [4]); in test [2] (setting [5]); in test [2] (setting [6]); in the test with Lolium perenne (LOLPE) (setting [7]); in the test on Lolium perenne (LOLPE) (setting [8])) was 100% throughout. In addition, the pest or weed control at 250 g/ha in the test on Avena fatua (AVEFA) (setting [9]) and with Avena fatua (AVEFA) (setting [10]) was 100% each time.
For `CCc1cc(OCC(F)(F)F)cc(C)c1C1C(=O)CC(CC(=O)NCc2ccc(OC)cc2)C1=O` (stereo not drawn) [Compound B215], the pest or weed control at 250 g/ha in test [1] (setting [3]) amounted to 100%; in test [1] (setting [4]) it was 90%; in test [2] (setting [5]), 100%; in test [2] (setting [6]), 90%; with Lolium perenne (LOLPE) (setting [7]), 100%; in the test with Lolium perenne (LOLPE) (setting [8]), 90%. For the same molecule, the pest or weed control at 250 g/ha in the test on Avena fatua (AVEFA) (setting [9]) is 100%; in the test on Avena fatua (AVEFA) (setting [10]) it was 80%.
For `C/C=C/c1cc(C)c(C2C(=O)CC(CC(=O)NCc3ccc(OC)cc3)C2=O)c(CC)c1` (stereo not drawn) [Compound B189], the pest or weed control at 250 g/ha in test [1] (setting [3]) was 100%; in test [1] (setting [4]), 80%; in test [2] (setting [5]) it was 90%; in test [2] (setting [6]), 60%; with Lolium perenne (LOLPE) (setting [7]), 90%; in the test with Lolium perenne (LOLPE) (setting [8]), 80%. In addition, the pest or weed control at 250 g/ha in the test with Avena fatua (AVEFA) (setting [9]) worked out at 90%; with Avena fatua (AVEFA) (setting [10]), 40%.
